Measured values: patent US20210254000A1, “PROCESS FOR PRODUCING A T CELL COMPOSITION” (Juno Therapeutics, Inc., priority 2017, published 2021)

Key:
anti-CD19 CAR+ T cells = assay: Chronic stimulation assay with anti-ID conjugated beads (14 days); type: cell-based, human; settings: inhibitor present from initiation of stimulation; for primary or secondary cytolytic response: 3:1 effector:target cell ratio; for primary or secondary responses: ability of CAR-T cell compositions to produce cytokines: at thaw or after 14 day anti-ID bead stimulation, K562-CD19 1:1
Source text: Separate compositions of CD4+ and CD8+ cells were isolated from human donors, stimulated by activation with anti-CD3/anti-CD28 magnetic beads and transduced with a viral vector encoding an anti-CD19 CAR having an scFv derived from FMC63. Following cultivation under conditions to expand the cells, T cell compositions containing engineered CD4+ and CD8+ T cells from each donor were then separately harvested, formulated, and cryofrozen. The cryofrozen engineered CD4+ and CD8+ T cells were thawed and formulated at a 1:1 ratio of CD4+ and CD8+ T cells from the same donor to generate a T cell composition containing CAR+ T cells. Anti-idiotype (ID) antibody conjugated beads against the anti-CD19 CAR were incubated with cells at a 1:1 bead:cell ratio for 14 days.
Secondary response of CAR-T cells harvested at day 14 following CAR-specific stimulation with anti-ID conjugated beads (Day 14; secondary) was assessed after stimulation with K562-CD19 antigen-expressing target cells at an effector to target ratio of 1:1 (to assess cytokine levels) or 3:1 (to assess cytolytic activity). The primary response of T cells from the T cell composition that had not been incubated with the anti-ID conjugated beads also was determined by similar stimulation with antigen-expressing cells (Day 0; “primary”). To assess cytolytic activity, the target cells were labeled with NucLight Red (NLR) to permit tracking by fluorescent microscopy. Killing activity was assessed by measuring the loss of viable target cells over 72 hours, as determined by loss of fluorescent signal over time by kinetic fluorescence microscopy (using the INCUCYTE® Live Cell Analysis System, Essen Bioscience). Killing index was determined as the inverse of the area under the curve (AUC) for target fluorescence over time. Intracellular cytokine levels of IL-2 and TNF-alpha were assessed by flow cytometry in co-cultured T cells after incubation in the presence of a Golgi Inhibitor. […]
Primary response of CAR-T cell compositions at thaw (no stimulation with anti-ID conjugated beads) or secondary response of CAR-stimulated CAR-T compositions (following 14 day CAR-specific stimulation with anti-ID conjugated beads) was assessed after stimulation with antigen-expressing cells. CAR-T cell compositions were cultured 1:1 with K562-CD19 antigen-expressing cells in the presence of a Golgi Inhibitor, and polyfunctional cytokine production was assessed by flow cytometry following intracellular cytokine staining for IL-2, IFN-gamma and TNF-alpha. A polyfunctional score was determined from cumulative levels of cytokines as determined in CD8+ cells after the data were normalized by scaling within donor cohorts (FIG. 13A). […]

CD4+ and/or CD8+ T cells = assay: RNA-Seq gene expression of CAR-T cells expanded with inhibitor; type: cell-based, human; settings: FDR≤10%
Protocol: Gene expression among cells of the generated anti-CD19 CAR-T cell compositions described in Example 2, generated by expanding the cells in the presence of PI-103, Compound 63, DMSO vehicle, or media only, was assessed by RNA sequencing (RNA-Seq). RNA was extracted from compositions generated from three donors under each expansion condition and an assessment of the whole-transcriptome was performed by RNA-Seq. FPKM and FPKQ values were determined; FPKQ values were log-transformed (log 2). Gene expression was determined by comparing expression profiles of CD4+, CD8+ or combined CD4+/CD8+ cells among cells of the generated anti-CD19 CAR-T cell compositions that were expanded in the presence of media only, PI-103, or Compound 63, as compared to cells expanded with DMSO vehicle. Gene products were identified that were different among each groups based on analysis of a volcano plot by imposing cutoff of FDR≤10% between the two conditions.

phospho-S6 = assay: Antigen-dependent CAR signaling (phospho-S6) in expanded CAR-T cells; type: cell-based, human; settings: cells expanded with 200 nM PI-103 or 1 μM Compound 63, washed; 20 hours co-culture 1:1
Protocol: Separate compositions of CD4+ and CD8+ cells were isolated from three human donors, activated and transduced with a viral vector encoding an anti-CD19 CAR substantially as described in Example 2. After transduction, the CD4+ and CD8+ T cells derived from each donor were separately incubated for 8 days in the presence of a mTOR kinase inhibitor to expand T cells substantially as described in Example 2, except in the presence of 200 nM PI-103, 1 μM Compound 63, or with DMSO vehicle or media only controls. CD4+ and CD8+ T cells from each donor were then separately harvested, formulated, and cryofrozen. The cryofrozen engineered CD4+ and CD8+ T cells were thawed, washed to remove compound, and cells from the same donor were then combined at a ratio of 1:1 viable CD4+/CAR+ to viable CD8+/CAR+ T cells to produce an expanded anti-CD19 CAR-T cell composition containing CD4+ and CD8+ T cells. Functional activities of the generated anti-CD19 CAR-T cell compositions were assessed.
Antigen-dependent signaling of CAR-T cells among generated anti-CD19 CAR-T cell compositions was assessed by monitoring activation of phospho-S6. […] After 20 hours, cells were assessed, for intracellular S6 phosphorylation and co-stained for surface expression of CD4 or CD8, by flow cytometry.

Raji cells = assay: Raji tumor xenograft model, CAR-T cells prepared as in Example 7; type: in vivo, nod scid gamma (NSG) immunodeficient mice
Protocol: Anti-tumor effects of anti-CD19 CAR-T cell compositions prepared in the presence DMSO, PI-103 or Compound 63 as described in Example 7 were assessed in vivo. The tumor xenograft mouse model was generated by implanting nod scid gamma (NSG) immunodeficient mice with 0.5×10^6 Raji cells (an immortalized human B lymphocyte tumor cell line that expresses CD19), which were allowed to engraft. The Raji cells were transfected with firefly luciferase to facilitate measurement of tumor burden by bioluminescence imaging. After seven days, mice either received no treatment, or treatment with a low dose (0.25×10^6) or a high dose (1.0×10^6) of anti-CD19 CAR+ T cells prepared in the presence of DMSO (vehicle) or DMSO and a mTOR kinase inhibitor. Tumor burden and mortality were assessed weekly.

Compound | primary or secondary cytolytic response (anti-CD19 CAR+ T cells) | primary or secondary responses: ability of CAR-T cell compositions to produce cytokines (anti-CD19 CAR+ T cells) | gene expression (RNA-Seq) compared to cells expanded with DMSO vehicle (CD4+ and/or CD8+ T cells) | phospho-S6 staining after antigen stimulation vs DMSO vehicle or media only (phospho-S6) | in vivo anti-tumor responses compared to absence of inhibitor (DMSO vehicle) (Raji cells; low (0.25×10^6) or high (1.0×10^6) dose of CAR+ T cells prepared with the inhibitor) | anti-tumor effects compared to cells produced in the absence of inhibitor (DMSO vehicle) (Raji cells; CAR-T cells generated from another donor)
CC(C)c1ccccc1-n1c(=O)[nH]c2c(C(N)=O)nc(-c3cccc(O)c3)nc21 [Compound 63, 2-(3-Hydroxyphenyl)-9-(2-isopropylphenyl)-8-oxo-8,9-dihydro-7H-purine-6-carboxamide] | Improvements in primary or secondary cytolytic response | improved primary or secondary responses | significantly changed gene expression | similar | improvement in vivo anti-tumor responses | 
Oc1cccc(-c2nc(N3CCOCC3)c3oc4ncccc4c3n2)c1 [PI-103, reference compound] | Improvements in primary or secondary cytolytic response | improved primary or secondary responses | significantly changed gene expression | similar |  | comparable anti-tumor effects
